ChEMBL document CHEMBL3714740, “alpha-amino acid derivatives and medicaments containing the same as an active ingredient” (2011)
Activity calls are given as the source filed them. The rule behind the calls is not given here.

Experiments:
[1] = Antiproliferative activity against human SW620 cells assessed as inhibition of cell proliferation incubated for 4 days by CCK8 assay; format: functional, cell-based; conditions: SW-620, 96 h
[2] = tested on: DU-145; assay: Antitumor activity against human DU145 cells xenografted in nude Balb/c mouse assessed as inhibition of tumor volume at 100 mg/kg administered orally using gastric tube once daily for 14 days starting at mean tumor volume of 200 to 250 mm3; format: functional, organism-based; conditions: Prostate
[3] = tested on: SW-620; assay: Antitumor activity against human SW620 cells xenografted in nude Balb/c mouse assessed as inhibition of tumor volume at 100 mg/kg administered orally using gastric tube once daily for 17 days starting at mean tumor volume of 200 to 250 mm3; format: functional, organism-based

| SMILES | IC50 [1] [nM] | inhibition [2] | inhibition [3] |
| --- | --- | --- | --- |
| CC(C)(C)C(=O)Nc1cc(NC(C)(C)C(=O)Nc2nc3ccc4[nH]ncc4c3s2)ccc1Cl | 2700 |  |  |
| CC(C)(Nc1ccc(Cl)cc1)C(=O)Nc1nc2ccc3[nH]ncc3c2s1 |  | Active | Active |
| CC(C)(Nc1ccc(Cl)c(OCC(O)CO)c1)C(=O)Nc1nc2c(C(F)(F)F)cc3[nH]ncc3c2s1 (configuration not stated) |  | Active |  |
| CCNC(=O)c1cc(NC(C)(C)C(=O)Nc2nc3c(C(F)(F)F)cc4[nH]ncc4c3s2)ccc1Cl |  | Active |  |
| CNC(=O)c1cc(NC2(C(=O)Nc3nc4ccc5[nH]ncc5c4s3)CC2)ccc1Cl |  | Active | Active |
